Laboratory results: the NIST ThermoML archive (doi:10.1021/je700287u)

Test: xn = mol fraction of the nth substance listed
Conditions: Liquid

CN(CCO)CCO [N-methyldiethanolamine] + O
Conditions	mass density [kg/m3]
313.12 K, 1001 kPa, x1 = 0.0369	1005.7
313.12 K, 2015 kPa, x1 = 0.0369	1006.1
313.12 K, 2986 kPa, x1 = 0.0369	1006.5
313.12 K, 3994 kPa, x1 = 0.0369	1006.9
313.12 K, 5003 kPa, x1 = 0.0369	1007.3
313.12 K, 6002 kPa, x1 = 0.0369	1007.7
313.12 K, 6994 kPa, x1 = 0.0369	1008.1
313.12 K, 7995 kPa, x1 = 0.0369	1008.5
313.12 K, 8996 kPa, x1 = 0.0369	1008.9
313.12 K, 9983 kPa, x1 = 0.0369	1009.3
313.12 K, 10989 kPa, x1 = 0.0369	1009.7
313.12 K, 11991 kPa, x1 = 0.0369	1010.1
313.12 K, 12991 kPa, x1 = 0.0369	1010.5
313.12 K, 13988 kPa, x1 = 0.0369	1010.9
313.12 K, 14989 kPa, x1 = 0.0369	1011.4
313.12 K, 15985 kPa, x1 = 0.0369	1011.7
313.12 K, 16984 kPa, x1 = 0.0369	1012.1
313.12 K, 17985 kPa, x1 = 0.0369	1012.5
313.12 K, 18989 kPa, x1 = 0.0369	1012.9
313.12 K, 19945 kPa, x1 = 0.0369	1013.3
313.13 K, 1003 kPa, x1 = 0.1302	1033.5
313.13 K, 1011 kPa, x1 = 0.0893	1025.9
313.13 K, 1993 kPa, x1 = 0.1302	1033.9
313.13 K, 1994 kPa, x1 = 0.0893	1026.2
313.13 K, 2999 kPa, x1 = 0.1302	1034.3
313.13 K, 3002 kPa, x1 = 0.0893	1026.6
313.13 K, 3994 kPa, x1 = 0.1302	1034.6
313.13 K, 3998 kPa, x1 = 0.0893	1027
313.13 K, 4984 kPa, x1 = 0.1302	1035
313.13 K, 4998 kPa, x1 = 0.0893	1027.4
313.13 K, 6001 kPa, x1 = 0.0893	1027.8
313.13 K, 6001 kPa, x1 = 0.1302	1035.4
313.13 K, 6993 kPa, x1 = 0.1302	1035.8
313.13 K, 6994 kPa, x1 = 0.0893	1028.1
313.13 K, 8000 kPa, x1 = 0.0893	1028.5
313.13 K, 8003 kPa, x1 = 0.1302	1036.1
313.13 K, 8996 kPa, x1 = 0.1302	1036.5
313.13 K, 8999 kPa, x1 = 0.0893	1028.9
313.13 K, 9989 kPa, x1 = 0.1302	1036.8
313.13 K, 9995 kPa, x1 = 0.0893	1029.2
313.13 K, 10983 kPa, x1 = 0.1302	1037.2
313.13 K, 10990 kPa, x1 = 0.0893	1029.6
313.13 K, 11992 kPa, x1 = 0.1302	1037.6
313.13 K, 12001 kPa, x1 = 0.0893	1030
313.13 K, 12980 kPa, x1 = 0.1302	1037.9
313.13 K, 12989 kPa, x1 = 0.0893	1030.3
313.13 K, 14000 kPa, x1 = 0.0893	1030.7
313.13 K, 14000 kPa, x1 = 0.1302	1038.3
313.13 K, 14999 kPa, x1 = 0.0893	1031.1
313.13 K, 15002 kPa, x1 = 0.1302	1038.7
313.13 K, 15995 kPa, x1 = 0.0893	1031.4
313.13 K, 16001 kPa, x1 = 0.1302	1039.1
313.13 K, 16998 kPa, x1 = 0.1302	1039.5
313.13 K, 17013 kPa, x1 = 0.0893	1031.8
313.13 K, 17991 kPa, x1 = 0.1302	1039.8
313.13 K, 17993 kPa, x1 = 0.0893	1032.2
313.13 K, 18991 kPa, x1 = 0.0893	1032.6
313.13 K, 18996 kPa, x1 = 0.1302	1040.2
313.13 K, 19990 kPa, x1 = 0.1302	1040.5
313.13 K, 19991 kPa, x1 = 0.0893	1032.9
313.14 K, 999 kPa, x1 = 0.0607	1018.1
313.14 K, 2000 kPa, x1 = 0.0607	1018.5
313.14 K, 3028 kPa, x1 = 0.0607	1018.9
313.14 K, 4020 kPa, x1 = 0.0607	1019.3
313.14 K, 5011 kPa, x1 = 0.0607	1019.7
313.14 K, 6015 kPa, x1 = 0.0607	1020.1
313.14 K, 7003 kPa, x1 = 0.0607	1020.4
313.14 K, 8009 kPa, x1 = 0.0607	1020.8
313.14 K, 9014 kPa, x1 = 0.0607	1021.2
313.14 K, 10000 kPa, x1 = 0.0607	1021.5
313.14 K, 10977 kPa, x1 = 0.0607	1022
313.14 K, 12029 kPa, x1 = 0.0607	1022.3
313.14 K, 13022 kPa, x1 = 0.0607	1022.7
313.14 K, 13988 kPa, x1 = 0.0607	1023
313.14 K, 15009 kPa, x1 = 0.0607	1023.4
313.14 K, 16003 kPa, x1 = 0.0607	1023.8
313.14 K, 16995 kPa, x1 = 0.0607	1024.2
313.14 K, 18007 kPa, x1 = 0.0607	1024.6
313.14 K, 19000 kPa, x1 = 0.0607	1024.9
313.14 K, 19950 kPa, x1 = 0.0607	1025.3
323.08 K, 1011 kPa, x1 = 0.0607	1012.5
323.08 K, 2015 kPa, x1 = 0.0607	1012.9
323.08 K, 3015 kPa, x1 = 0.0607	1013.2
323.08 K, 4025 kPa, x1 = 0.0607	1013.7
323.08 K, 4995 kPa, x1 = 0.0607	1014
323.08 K, 6015 kPa, x1 = 0.0607	1014.4
323.08 K, 7015 kPa, x1 = 0.0607	1014.8
323.08 K, 7992 kPa, x1 = 0.0607	1015.2
323.08 K, 9006 kPa, x1 = 0.0607	1015.6
323.08 K, 10014 kPa, x1 = 0.0607	1016
323.08 K, 11000 kPa, x1 = 0.0607	1016.3
323.08 K, 12064 kPa, x1 = 0.0607	1016.8
323.08 K, 13004 kPa, x1 = 0.0607	1017.1
323.08 K, 13990 kPa, x1 = 0.0607	1017.5
323.08 K, 14997 kPa, x1 = 0.0607	1017.9
323.08 K, 15999 kPa, x1 = 0.0607	1018.2
323.08 K, 16993 kPa, x1 = 0.0607	1018.6
323.08 K, 18008 kPa, x1 = 0.0607	1019
323.08 K, 19017 kPa, x1 = 0.0607	1019.4
323.08 K, 19961 kPa, x1 = 0.0607	1019.7
323.09 K, 1017 kPa, x1 = 0.1302	1026.6
323.09 K, 1034 kPa, x1 = 0.0369	1001.1
323.09 K, 2001 kPa, x1 = 0.1302	1027
323.09 K, 2004 kPa, x1 = 0.0369	1001.5
323.09 K, 2993 kPa, x1 = 0.0369	1001.9
